Results reported in patent publication US8664209B2, “Daptomycin for multiple sclerosis” (priority 2009, dated 2014).
Read-outs that look alike come from different tables or passages of the source.

Key:
Assay type in all cases: in vivo, human
[1] = test system: patients with progressive and relapsing forms of multiple sclerosis
Experimental: Seventeen patients with relapsing remitting (4 patients) and chronic progressive multiple sclerosis […] have received daptomycin therapy at 4 mg/kg IV for periods ranging from five to 21 days. This patient group included Patient A and Patient B from the above examples.
Four out of seventeen patients have received daptomycin for acute relapses, after not responding to, or wishing to be taken of, solumedrol therapy.
Thirteen patients with chronic progressive multiple sclerosis received daptomycin therapy for symptoms of multiple sclerosis that were progressing, or to improve present symptoms. […] In all chronic progressive patients who report responses to the drug, maintenance doses starting with once a week with or without the addition of intravenous corticosteroids are given. Doses of daptomycin 2 mg/kg are given to patients who report fatigue as a significant side effect.
Overall, in the same study, daptomycin was administered to a total of 30 patients. 14 responded to treatment (47%).
Daptomycin was administered as a daily IV infusion at 3 mg/kg, 4 mg/kg or 6 mg/kg as per standard guidelines for 5 to 21 days, then as a maintenance dose of 3 mg/kg, 4 mg/kg or 6 mg/kg once every one to four weeks. Patients were monitored by telephone calls. CPK levels were done as clinically indicated. Patients were selected on the basis of failure or intolerance on other treatments and continued disease activity.

[2] = test system: person with secondary progressive multiple sclerosis (SPMS); test: Patient A case: daptomycin given for MRSA infection (Examples 1, 3); conditions: for muscle and nerve pain, muscle stiffness: patient-reported
Excerpt: The novel use of daptomycin in the treatment and/or prevention of multiple sclerosis in mammals, particularly human, is based on the recent observation of a patient (Patient A) with multiple sclerosis whose progressive neurological disability stabilized after treatment with daptomycin for skin infections caused by methicillin resistant Staphalococcus aureus. Previously, their neurological disability had progressed despite treatment with standard FDA approved therapies as well as investigational therapies, some of which they developed severe allergic reactions to. […] More detail about Patient A is provided in Example 3. Patient A is a person who has suffered from multiple sclerosis. Their disease started with left arm and leg weakness. During the early course of the disease, they experienced frequent relapses. Progressive relapsing continued, with increasing lower extremity weakness. The patient characterized their left arm as feeling like dead weight. Patient A developed diverticulitis in 2006. Their EDSS (Expanded Disability Status Scale) was 5.5 in February, 2007, i.e., patient was able to walk 100 meters without aid or rest; their EDSS was 6.0 by the end of the year, i.e., patient required intermittent or constant assistance with a cane, crutch or brace to walk 100 meters. Daptomycin therapy was initiated to treat a MRSA infection after Patient A had knee surgery. They received a daptomycin dose of 100 mg for four weeks. Three months later, they had re-treatment with 500 mg daily for about four weeks.

[3] = test system: person with multiple sclerosis with almost weekly relapses; test: Patient B case: daptomycin for relapses (Example 2); conditions: for ambulation: acute relapse (nonambulatory)
Excerpt: This is described in more detail in Example 2. Patient B is a person who was first diagnosed with multiple sclerosis in 1981. The course of their illness was characterized through the years by increasingly frequent relapses and progressive disability. They had initially been treated with azathioprine and, subsequently with interferons, including Betaseron™ and Avonex®, and Copaxone®. As adjunct treatments, they received innumerable courses of intravenous methylprednisolone, as well as cyclophosphamide, since 2005. In addition, they have also received mycophenylate mofetil, plasma exchange monthly, intravenous immunoglobulin monthly, natalizumab, daclizumab and rituximab. None of these regimens adequately controlled their many relapses, which were characterized by worsening gait and appendicular ataxia, weakness in their limbs, vertigo and diplopia and severe migraine headaches. In late 2008 and 2009, they were hospitalized seven times for relapses. Since 2005, they had received more than 50 courses of steroid and/or cyclophosphamide treatments for relapses not requiring hospitalization. These treatments would induce partial and short lasting remissions. During 2009, they were having relapses on a weekly basis. During remissions, they were able to walk only with a walker. Daptomycin 4 mg/kg intravenously [hereinafter “IV”] was administered to patient B for five days for an acute relapse which made the patient nonambulatory. […] They did have an allergic reaction with chest tightness and blistering at the injection site that was determined to be caused by the tape securing their IV catheter. […] Daptomycin 4 mg/kg/IV was administered for five additional days with pretreatment with solumedrol in the total amount of 100 mg IV and diphenhydramine in the total amount of 50 mg IV with improvement. Daptomycin was then ordered 4 mg/kg/IV once a week. Three days after their first weekly dose, they began to feel more off balanced and their headache became more severe. Daptomycin orders were revised to 4 mg/kg IV once a week in co-administration with solumedrol 1 gram IV.

[4] = RPMS (relapsing progressive MS)
[5] = patient thirteen, SPMS, DD 4 yrs, EDSS pretx 4, 4 mg/kg/d × five days (relapse), status D (discontinued)
[6] = secondary progressive MS (SPMS)
[7] = Patient A, listed as daptomycin

creatine phosphokinase level (CPK) ([1]; human, in vivo): 217
Compound: CCCCCCCCCC(=O)N[C@@H](Cc1c[nH]c2ccccc12)C(=O)N[C@H](CC(N)=O)C(=O)N[C@@H](CC(=O)O)C(=O)N[C@@H]1C(=O)NCC(=O)N[C@@H](CCCN)C(=O)N[C@@H](CC(=O)O)C(=O)N[C@H](C)C(=O)N[C@@H](CC(=O)O)C(=O)NCC(=O)N[C@H](CO)C(=O)N[C@@H]([C@H](C)CC(=O)O)C(=O)N[C@@H](CC(=O)c2ccccc2N)C(=O)O[C@@H]1C [Daptomycin, N-decanoyl-L-trypotophyl-D-asparaginyl-L-aspartyl-L-threonylglycyl-L-ornithyl-L-aspartyl-D-alanyl-L-aspartylglycyl-D-seryl-threo-3-methyl-L-glutamyl-3-anthraniloyl-L-alanine ε1-lactone]
subgroup response [1, 4]: 0%
subgroup response (responders/treated) [1, 4]: 0/2
patient-reported strength and sensation ([1]; four out of seventeen patients given daptomycin for acute relapses, 4 mg/kg IV): Three patients reported improvement in their strength and sensation
hospitalizations ([1]; human, in vivo): Two patients were hospitalized for confusion and increased symptoms
most common side effect during the course of therapy ([1]; human, in vivo): fatigue
fatigue associated with therapy ([1]; human, in vivo, iv, 4 mg/kg): Three patients noted that daptomycin therapy was associated with significant fatigue
EDSS (last) ([1]; patient eight, SPMS, DD 12 yrs, EDSS pretx 7, 4 mg/kg × one dose, status D (discontinued)): 7
EDSS (last) ([1]; patient eighteen, SPMS, DD 5 yrs, EDSS pretx 6, 4 mg/kg × 5 days, then 4 mg/kg q week, status D (discontinued)): 6
EDSS (last) ([1]; patient eleven, SPMS, DD 24 yrs, EDSS pretx 6.5, 4 mg/kg/day × 14 days (relapse), status D (discontinued)): 6.5
EDSS (last) ([1]; patient fifteen, SPMS, DD 25 yrs, EDSS pretx 6.5, 4 mg/kg/d × 5 days (two courses), 4 mg/kg/week, status A (active)): 6.5
EDSS (last) ([1]; patient five, RRMS, DD 7 yrs, EDSS pretx 2.5, 4 mg/kg/day × 5 days, status D (discontinued)): 2.5
EDSS (last) ([1]; patient four, RRMS, DD 15 yrs, EDSS pretx 2.5, 4 mg/kg/d × 14 days, then 4 mg/kg/q 1-2 wks, status D (discontinued)): 2
EDSS (last) ([1]; patient fourteen, SPMS, DD 9 yrs, EDSS pretx 6, 4 mg/kg × 5 days, then 4 mg/kg q 2 wks, status A (active)): 6
EDSS (last) ([1]; patient nine, SPMS, DD 13 yrs, EDSS pretx 6.5, 4 mg/kg/d × 5 days, 4 mg/kg q 2 wks, status A (active)): 6.5
EDSS (last) ([1]; patient nineteen, SPMS, DD 21 yrs, EDSS pretx 6.5, 4 mg/kg × 21 days. D/Ced p 2½ wks, status D (discontinued)): 6.5
EDSS (last) ([1]; patient one, TMS, DD 12 yrs, EDSS pretx 6, 4 mg/kg × 21 days, status D (discontinued)): 6
EDSS (last) ([1]; patient seven, RRMS, DD 6 yrs, EDSS pretx 3.5, 4 mg/kg/d × 14 days, status D (discontinued)): 3.5
EDSS (last) ([1]; patient seventeen, RRMS, DD 7 yrs, EDSS pretx 0, 4 mg/kg/d × 3 days, then 4 mg/kg/week, status A (active)): 1
EDSS (last) ([1]; patient six, RPMS, DD 12 yrs, EDSS pretx 6, 4 mg/kg/d × 3 days, then 4 mg/kg/week, status D (discontinued)): 6
EDSS (last) ([1]; patient sixteen, PPMS, DD 18 yrs, EDSS pretx 8.5, 4 mg/kg/d × 15 days, the 4 mg/kg/week, status D (discontinued)): 8.5
EDSS (last) ([1]; patient ten, RRMS, DD 15 yrs, EDSS pretx 3, 4 mg/kg/d × 16 days, 4 mg/kg/wk × 4, then 4 mg/kg/q o wk, status A (active)): 3
EDSS (last) [1, 5]: 3.5
Outcome [1, 5]: No benefit
EDSS (last) ([1]; patient thirty, SPMS, DD 17 yrs, EDSS pretx 6, 4 mg/kg/d × 10 days, status D (discontinued)): 6
EDSS (last) ([1]; patient three, RPMS, DD 18 yrs, EDSS pretx 6.5, 4 mg/kg/d × 5 days, status D (discontinued)): 6.5
EDSS (last) ([1]; patient twelve, SPMS, DD 9 yrs, EDSS pretx 4, 4 mg/kg × 21 days, status D (discontinued)): 4
EDSS (last) ([1]; patient twenty, SPMS, DD 16 yrs, EDSS pretx 6.5, 4 mg/kg/day × 21 days, then 4 mg/kg q 2 weeks, status A (active)): 6.5
EDSS (last) ([1]; patient twenty-eight, SPMS, DD 15 yrs, EDSS pretx 6.5, 4 mg/kg/d × 10 days, then 4 mg/kg/wk, status A (active)): 6
EDSS (last) ([1]; patient twenty-five, SPMS, DD 6 yrs, EDSS pretx 6.5, 4 mg/kg/d × 5 days, status D (discontinued)): 7
EDSS (last) ([1]; patient twenty-four, SPMS, DD 15 yrs, EDSS pretx 6.5, 4 mg/kg/d × 10 days, then 4 mg/kg/wk, status A (active)): 6.5
EDSS (last) ([1]; patient twenty-nine, SPMS, DD 16 yrs, EDSS pretx 6.5, 4 mg/kg × 21 days, then 4 mg/kg q 2 wks, status A (active)): 6.5
EDSS (last) ([1]; patient twenty-one, SPMS, DD 11 yrs, EDSS pretx 5.5, 4 mg/kg/day × 21 days, 4 mg/kg q wk. 6 mg/kg/d times 14 days, status D (discontinued)): 6
EDSS (last) ([1]; patient twenty-seven, SPMS, DD 10 yrs, EDSS pretx 6, 4 mg/kg/d × 5 days, 2 mg/kg q 2 wks, status A (active)): 6
EDSS (last) ([1]; patient twenty-six, TMS, DD 23 yrs, EDSS pretx 4, 4 mg/kg/d × 14 days, status D (discontinued)): 4
EDSS (last) ([1]; patient twenty-three, RRMS, DD 11 yrs, EDSS pretx 2, 4 mg/kg × 5 days (relapse). Repeated 3 mos later (relapse), status D (discontinued)): 2.5
EDSS (last) ([1]; patient twenty-two, SPMS, DD 6 yrs, EDSS pretx 6.5, 4 mg/k/d × 5 days, status D (discontinued)): 6.5
EDSS (last) ([1]; patient two, SPMS, DD 11 yrs, EDSS pretx 6, 500 mg IV × 5 weeks, 4 mg/kg × 4 wks, 4 mg/kg q wk, status A (active)): 2.5
patients showing clinically significant improvement in symptoms of multiple sclerosis ([1]; patients with progressive and relapsing MS unresponsive to multiple therapies): 47%
subgroup response ([1]; primary progressive MS (PPMS)): 0%
subgroup response (responders/treated) ([1]; primary progressive MS (PPMS)): 0/1
subgroup response ([1]; relapsing remitting MS (RRMS)): 50%
subgroup response (responders/treated) ([1]; relapsing remitting MS (RRMS)): 3/6
subgroup response [1, 6]: 47%
subgroup response (responders/treated) [1, 6]: 9/19
patient-reported strength ([1]; thirteen patients with chronic progressive multiple sclerosis, 4 mg/kg IV): Nine patients reported better strength
patients who responded to treatment ([1]; total of 30 patients): 47%
patients who responded to treatment (number) ([1]; total of 30 patients): 14
subgroup response ([1]; transitional MS (TMS)): 100%
subgroup response (responders/treated) ([1]; transitional MS (TMS)): 2/2
left upper extremity strength, sensation, numbness ([2]; Patient A): numbness in their left arm was improved
walking ([2]; Patient A, after the first daptomycin treatment (100 mg for four weeks)): slight improvement in walking
gait / need of cane ([2]; Patient A, after the second treatment (500 mg daily about four weeks)): did not require their cane, but could walk unassisted
progressive neurological disability ([2]; Patient A, after treatment with daptomycin for MRSA skin infections): stabilized
walking ([2]; Patient A, during and after treatment): able to walk extended distances without their cane
EDSS (Expanded Disability Status Scale) ([2]; Patient A, four weeks after discontinuing daptomycin, EDSS was 6.0 before, 100 mg for four weeks, re-treatment 500 mg daily about four weeks): 2.5
muscle and nerve pain, muscle stiffness ([2]; Patient A): improvement in muscle pain and stiffness
muscle and nerve pain, muscle stiffness [2, 7]: significant decrease in their muscle and nerve pain as well as muscle stiffness
left upper extremity strength, sensation, numbness [2, 7]: increase in strength and sensation of their left upper extremity
functional improvement ([2]; person with SPMS poorly responsive to other therapies): dramatic and sustained functional improvement
ambulation ([3]; 4 mg/kg IV for five days, third day): able to walk with their walker
ambulation ([3]; 4 mg/kg IV, after five days): able to take a few steps without their walker
duration of stability after initial course ([3]; after initial 4 mg/kg IV for five days, then recurrence of ataxia and increased headaches, less severe): stable for approximately one week
response of relapses ([3]; consecutive courses of daptomycin for three to five days): respond very rapidly
frequency of relapses ([3]; daptomycin at regular intervals (4 mg/kg IV once a week with solumedrol 1 gram IV)): marked decrease in the frequency of their relapses
frequency of relapses and neurological disability ([3]; intravenous daptomycin 4 mg/kg): stabilized both in terms of the frequency of their relapses and neurological disability
